Test results reported in patent US20070105114A1, “Biomarkers of cyclin-dependent kinase modulation” (priority 2003, published 2007).
Counter-ions that a name gives are not always drawn.

How the values were obtained:
[1] = test system: mouse ortholog of W28729; assay: Mouse ortholog of W28729 expression in PBMC of tumor mice; format: in vivo; details: PBMC isolated from the tumor mice, compared with tumors
Description: At the minimum efficacious dose (MED) of 18 mg/kg/day, the induction was sustained for more than 6 hours. In an infusion regimen using the minimum efficacious dose of 40 mg/kg, gene induction was sustained for at least 16 hours. […] Treatment with an efficacious regimen results in >2 fold induction of the sequence for 6 hours or longer. […] In addition, these observations support the use of PBMC as a surrogate tissue for monitoring changes in gene expression, that result from treatment with the cdk2 inhibitor.

[2] = test system: A2780s; assay: 72 hr XTT proliferation assay; format: cell-based; details: Homo sapiens, 72 hr. XTT assay
Description: Treatment of A2780 and PBMC was carried out as described above. The doses of the cdk2 inhibitor were derived from an understanding of the kinetics of tumor cell growth inhibition by the cdk2 inhibitor as assessed by proliferation and clonogenic assays (Table 3). […] A minimal exposure of 8 hours was required for effective inhibition of colony formation. The values obtained from the 24 hour clonogenic assay were in good agreement with the 72 hour proliferation assay.

[3] = test system: W28729; assay: W28729 expression in human ovarian carcinoma xenograft A2780 tumors in nude mice; format: in vivo, mouse
Description: The human ovarian carcinoma xenograft A2780s were maintained in Balb/c nu/nu nude mice. Tumors were propagated as subcutaneous (sc) transplants using tumor fragments obtained from donor mice. For the cdk2 inhibitor treatment, tumors were allowed to grow to the pre-determined size window of approximately 100-200 mg (tumors outside the range were excluded) and animals were evenly distributed to various treatment and control groups (n=6). Treatment of each animal was based on individual body weight. The cdk2 inhibitor was first dissolved in a mixture of Cremophor®/ethanol (50:50). One hour prior to administration, the cdk2 inhibitor was diluted with water so that the dosing solutions contained the specified excipient composition, i.e., Cremophor®/ethanol/water (1:1:8, v/v). The volume of all compounds injected was 0.01 ml/gm of mice. The cdk2 inhibitor was administered as a bolus injection intraperitoneal at doses of 36 and 18 mg/kg. Tumor and plasma were sampled at the time points of 4, 7, and 24 hour post treatment. Plasma sample was frozen immediately at −80° C. for pharmacokinetic analysis, and tumor sample was preserved in RNAase free buffer for pharmacogenomic analysis. The biomarker W28729 (SEQ ID NO: 1246) was selected as a preferred marker. A same-well multiplex real-time quantitative PCR assay on this biomarker with normalization control, house-keeping gene GAPDH, was developed using Taq-man MGB probes. Gene expression changes for W28729 were measured with real-time quantitative PCR assays in the following sample sets: A2780 human tumor cell line treated with 20 nM of cdk2 inhibitor for different durations (FIG. 3A), PBMC treated with 10n-M cdk2 inhibitor at 4 hours (FIG. 3B); and human ovarian carcinoma xenograft A2780 treated with cdk2 inhibitor at doses of 36 and 18 mg/kg for different durations (FIG. 3C). […] At the minimum efficacious dose (MED) of 18 mg/kg/day, the induction was sustained for more than 6 hours. In an infusion regimen using the minimum efficacious dose of 40 mg/kg, gene induction was sustained for at least 16 hours. […] Treatment with an efficacious regimen results in >2 fold induction of the sequence for 6 hours or longer. […] In addition, these observations support the use of PBMC as a surrogate tissue for monitoring changes in gene expression, that result from treatment with the cdk2 inhibitor.

[4] = test system: A2780 xenografts; assay: Anti-tumor efficacy in A2780 xenografts (minimum efficacious dose); format: in vivo, mouse
Description: The human ovarian carcinoma xenograft A2780s were maintained in Balb/c nu/nu nude mice. Tumors were propagated as subcutaneous (sc) transplants using tumor fragments obtained from donor mice. For the cdk2 inhibitor treatment, tumors were allowed to grow to the pre-determined size window of approximately 100-200 mg (tumors outside the range were excluded) and animals were evenly distributed to various treatment and control groups (n=6). Treatment of each animal was based on individual body weight. The cdk2 inhibitor was first dissolved in a mixture of Cremophor®/ethanol (50:50). One hour prior to administration, the cdk2 inhibitor was diluted with water so that the dosing solutions contained the specified excipient composition, i.e., Cremophor®/ethanol/water (1:1:8, v/v). The volume of all compounds injected was 0.01 ml/gm of mice. The cdk2 inhibitor was administered as a bolus injection intraperitoneal at doses of 36 and 18 mg/kg. Tumor and plasma were sampled at the time points of 4, 7, and 24 hour post treatment. Plasma sample was frozen immediately at −80° C. for pharmacokinetic analysis, and tumor sample was preserved in RNAase free buffer for pharmacogenomic analysis. […] At the minimum efficacious dose (MED) of 18 mg/kg/day, the induction was sustained for more than 6 hours. […]

With CC(C)(C)c1cnc(CSc2cnc(NC(=O)C3CCNCC3)s2)o1 [cdk2 inhibitor, N-5-[[5-(1,1-Dimethylethyl)-2-oxazolyl]methyl]thio]-2-thiazolyl-4-piperidinecarboxamide, 0.5-L-tartaric acid salt] as the compound, how does the “induction of the mouse ortholog sequence in PBMC” value [1] read?
Its value is “strikingly similar pattern of induction”.

And the IC50 [2]?
Its IC50 is 95 nM.

And the IC90 [2]?
The IC90 was 170 nM.

What about the “pattern of W28729 induction in the tumors” value ([3]; A2780 xenografts, bolus i.p. treatments) of the same compound?
The value was “transient, dose-dependent manner”.

And the “duration of sustained W28729 induction” value ([3]; A2780 xenografts, bolus i.p., MED of 18 mg/kg/day)?
Its value is “more than 6 hours”.

What about the “duration of sustained gene induction” value ([3]; A2780 xenografts, infusion regimen, 40 mg/kg) of the same compound?
The value was “at least 16 hours”.

And the “induction of the sequence” value ([3]; efficacious regimen, for 6 hours or longer)?
The value was over 2 fold.

What about the “duration of W28729 gene induction versus dose” value ([3]; nude mice bearing A2780 xenografts, 36 and 18 mg/kg) of the same compound?
The value was “dose-dependent prolongation of the duration of gene induction”.

What about the “induction of W28729 in tumor” value ([3]; nude mice bearing A2780 xenografts, efficacious doses (36 and 18 mg/kg)) of the same compound?
The value was “induction of W28729”.

What about the “minimum efficacious dose (MED)” value ([4]; bolus i.p.) of the same compound?
The value was 18 mg/kg/day.

What about the minimum efficacious dose ([4]; infusion regimen) of the same compound?
The minimum efficacious dose was 40 mg/kg.
